# Values joined by “and” are separate entries in the source; they are usually repeats but may differ in a detail not shown here. Equal entries are not always repeated. Inconclusive results and toxic doses are left out.
# System: CD2F1 mice, L1210 leukemia sc, survival T/C
# Assay: NCI In Vivo Anticancer Drug Screen. Data for tumor model L1210 Leukemia (subcutaneous) in CD2F1 (CDF1) mice
# Settings: endpoint: median survival time, higher = longer survival
# Method in brief: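 Antitumor activity is scored in tumor-bearing mice by comparing survival or tumor size of treated animals against vehicle-treated controls, reported as T/C.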
structure (smiles),measurement,setting,value
CN(Cc1cnc2nc(N)nc(N)c2n1)c1ccc(C(=O)N[C@@H](CCC(=O)O)C(=O)O)cc1,T/C,"dose: 1.4 mg/kg/injection, schedule: Q01DX Z (sc), vehicle: sodium bicarbonate",183 % of control
same,T/C,"dose: 1.8 mg/kg/injection, schedule: Q01DX009 (sc), vehicle: other",161 % of control
same,T/C,"dose: 1.8 mg/kg/injection, schedule: Q01DX009 (sc), vehicle: sodium bicarbonate",174 % of control and 177 % of control
same,T/C,"dose: 1.8 mg/kg/injection, schedule: Q01DX Z (ip), vehicle: other",175 % of control
same,T/C,"dose: 1.8 mg/kg/injection, schedule: Q## X Z (sc), vehicle: other",111 % of control
same,T/C,"dose: 2.0 mg/kg/injection, schedule: Q01DX Z (sc), vehicle: other",175 % of control and 177 % of control and 183 % of control
same,T/C,"dose: 2.08 mg/kg/injection, schedule: Q01DX Z (sc), vehicle: other",170 % of control
same,T/C,"dose: 2.1 mg/kg/injection, schedule: Q01DX Z (oral), vehicle: other",163 % of control
same,T/C,"dose: 2.1 mg/kg/injection, schedule: Q01DX Z (sc), vehicle: other",168 % of control
same,T/C,"dose: 2.33 mg/kg/injection, schedule: Q01DX Z (sc), vehicle: sodium bicarbonate",155 % of control
same,T/C,"dose: 2.5 mg/kg/injection, schedule: Q01DX Z (sc), vehicle: other",155 % of control
same,T/C,"dose: 3.0 mg/kg/injection, schedule: Q01DX009 (ip), vehicle: saline with Tween-80",173 % of control
same,T/C,"dose: 3.0 mg/kg/injection, schedule: Q01DX009 (sc), vehicle: other",179 % of control
same,T/C,"dose: 3.0 mg/kg/injection, schedule: Q01DX009 (sc), vehicle: sodium bicarbonate",183 % of control
same,T/C,"dose: 3.0 mg/kg/injection, schedule: Q01DX Z (ip), vehicle: other",150 % of control
same,T/C,"dose: 3.0 mg/kg/injection, schedule: Q01DX Z (ip), vehicle: sodium bicarbonate",105 % of control
same,T/C,"dose: 3.0 mg/kg/injection, schedule: Q01DX Z (ip), vehicle: water",120 % of control
same,T/C,"dose: 3.0 mg/kg/injection, schedule: Q01DX Z (iv), vehicle: other",155 % of control
same,T/C,"dose: 3.0 mg/kg/injection, schedule: Q01DX Z (oral), vehicle: other",170 % of control
same,T/C,"dose: 3.0 mg/kg/injection, schedule: Q## X Z (sc), vehicle: other",111 % of control
same,T/C,"dose: 3.25 mg/kg/injection, schedule: Q01DX Z (sc), vehicle: other",158 % of control
same,T/C,"dose: 3.47 mg/kg/injection, schedule: Q01DX Z (sc), vehicle: other",150 % of control
same,T/C,"dose: 3.5 mg/kg/injection, schedule: Q01DX Z (sc), vehicle: other",163 % of control
same,T/C,"dose: 3.5 mg/kg/injection, schedule: Q03DX Z (oral), vehicle: other",100 % of control
same,T/C,"dose: 3.5 mg/kg/injection, schedule: Q#A X Z (oral), vehicle: other",109 % of control
same,T/C,"dose: 4.0 mg/kg/injection, schedule: Q01DX009 (ip), vehicle: saline with Tween-80",168 % of control
same,T/C,"dose: 4.0 mg/kg/injection, schedule: Q01DX009 (ip), vehicle: saline",184 % of control
same,T/C,"dose: 4.0 mg/kg/injection, schedule: Q01DX Z (sc), vehicle: other",150 % of control and 155 % of control
same,T/C,"dose: 5.0 mg/kg/injection, schedule: Q01DX009 (sc), vehicle: sodium bicarbonate",116 % of control and 120 % of control
same,T/C,"dose: 5.0 mg/kg/injection, schedule: Q01DX017 (sc), vehicle: other",122 % of control
same,T/C,"dose: 5.0 mg/kg/injection, schedule: Q## X Z (sc), vehicle: other",111 % of control
same,T/C,"dose: 5.83 mg/kg/injection, schedule: Q01DX Z (oral), vehicle: other",118 % of control
same,T/C,"dose: 5.83 mg/kg/injection, schedule: Q03DX Z (oral), vehicle: other",100 % of control
same,T/C,"dose: 8.33 mg/kg/injection, schedule: Q01DX Z (iv), vehicle: other",120 % of control
same,T/C,"dose: 8.33 mg/kg/injection, schedule: Q01DX Z (oral), vehicle: other",150 % of control
same,T/C,"dose: 8.4 mg/kg/injection, schedule: Q## X Z (sc), vehicle: other",122 % of control
same,T/C,"dose: 9.72 mg/kg/injection, schedule: Q01DX Z (oral), vehicle: other",118 % of control
same,T/C,"dose: 14.0 mg/kg/injection, schedule: Q## X Z (sc), vehicle: other",122 % of control
same,T/C,"dose: 16.2 mg/kg/injection, schedule: Q03DX Z (oral), vehicle: other",113 % of control
same,T/C,"dose: 23.0 mg/kg/injection, schedule: Q01DX001 (sc), vehicle: other",122 % of control
same,T/C,"dose: 23.0 mg/kg/injection, schedule: Q## X Z (sc), vehicle: other",122 % of control
same,T/C,"dose: 65.0 mg/kg/injection, schedule: Q07DX Z (sc), vehicle: other",150 % of control
same,T/C,"dose: 108.0 mg/kg/injection, schedule: Q01DX001 (sc), vehicle: other",122 % of control
same,T/C,"dose: 108.0 mg/kg/injection, schedule: Q07DX Z (sc), vehicle: other",122 % of control
same,T/C,"dose: 180.0 mg/kg/injection, schedule: Q01DX001 (sc), vehicle: other",116 % of control
same,T/C,"dose: 400.0 mg/kg/injection, schedule: Q01DX009 (ip), vehicle: sodium bicarbonate",158 % of control
